This note sets out measurements from ChEMBL document CHEMBL3817822, “Design and synthesis of pyridine-pyrazole-sulfonate derivatives as potential anti-HBV agents” (Medchemcomm, 2016).

By IC50 is commonly meant the concentration that gives 50% inhibition.

Data set [1] in a line: Cytotoxicity against human HepG2(2.2.15) cells assessed as reduction in cell viability after 72 hrs by MTS assay. The conditions noted are these: for CC50 at 72 h: HepG2(2.2.15) cells, read-out: TC50; for Activity: hepg2 2.2.15, 72 h. Type of data set: cell-based. Background: Tetrazolium assays rely on reduction of a dye to a coloured formazan, in cell work by metabolically active cells.

Data set [2] has as its system Hepatitis B virus. Briefly: Antiviral activity against HBV infected in human HepG2(2.2.15) cells assessed as inhibition of HBsAg secretion by enzyme immunoassay. In kind it is functional, organism-based.
Data set [3] is described as follows: Selectivity index, ratio of TC50 for human HepG2(2.2.15) cells to IC50 for HBV infected in human HepG2(2.2.15) cells assessed as inhibition of HBsAg secretion.
The subject of data set [4] is Hepatitis B virus. Briefly: Antiviral activity against HBV infected in human HepG2(2.2.15) cells assessed as inhibition of HBeAg secretion by enzyme immunoassay. Type of data set: functional, organism-based.
A short description of data set [5]: Selectivity index, ratio of TC50 for human HepG2(2.2.15) cells to IC50 for HBV infected in human HepG2(2.2.15) cells assessed as inhibition of HBeAg secretion.
The subject of data set [6] is Hepatitis B virus. Briefly: Antiviral activity against HBV infected in human HepG2(2.2.15) cells assessed as inhibition of viral DNA replication after 48 hrs by SYBR Green based RT-PCR method. Type of data set: functional, organism-based. The conditions noted are these: HepG2 2.2.15, 48 h.
The nature of data set [7]: Selectivity index, ratio of TC50 for human HepG2(2.2.15) cells to IC50 for HBV infected in human HepG2(2.2.15) cells assessed as inhibition of viral DNA replication.

Consider `O=c1cc(CSc2ccccn2)[nH][nH]1`, for which, in data set [1], the CC50 at 72 h was 1120 µM. For the same compound, the Activity entry in data set [1] was “Dose-dependent effect”. Also, the IC50 was 815 µM in the data set with Hepatitis B virus [2], 590 µM in the data set with Hepatitis B virus [4] and 524 µM with Hepatitis B virus [6]. The “Selectivity Index” value in data set [3] is given as 1.37; in data set [5], 1.89; in data set [7] it was 2.13.

Take `Nc1ccn([C@H]2CS[C@@H](CO)O2)c(=O)n1`: the CC50 at 72 h in data set [1] amounted to 352 µM. Further, the IC50 in the data set on Hepatitis B virus [6] was 2.09 µM.

With `O=[N+]([O-])c1ccc(S(=O)(=O)Oc2cc(CSc3ccccn3)[nH]n2)cc1`, in data set [1], the CC50 at 72 h came out at 38.2 µM. Further, the Activity entry in data set [1] is recorded as “Dose-dependent effect”. Besides, the IC50 in the data set with Hepatitis B virus [2] turned out to be 4.8 µM; with Hepatitis B virus [4], 5.97 µM; in the data set on Hepatitis B virus [6], 5.56 µM. In addition, the “Selectivity Index” value in data set [3] was 7.97; in data set [5], 6.41; in data set [7], 6.88.

With `O=S(=O)(Oc1cc(CSc2ccccn2)[nH]n1)c1ccc(Br)cc1`, in data set [1], the CC50 at 72 h is 52.4 µM. In data set [1], the Activity result is “Dose-dependent effect”. Further, the IC50 turned out to be 115 µM with Hepatitis B virus [2], 9.2 µM in the data set with Hepatitis B virus [4] and 6.07 µM in the data set on Hepatitis B virus [6]. For the same compound, the results for the “Selectivity Index” value in data set [3], in data set [5] and in data set [7] were 0.46, 5.69 and 8.63, respectively.

Take `O=[N+]([O-])c1ccccc1S(=O)(=O)Oc1cc(CSc2ccccn2)[nH]n1`: the CC50 at 72 h in data set [1] was determined as 66.2 µM. In addition, the Activity entry in data set [1] is “Dose-dependent effect”. Besides, the values for the 50% inhibitory concentration (IC50) in the data set with Hepatitis B virus [2], with Hepatitis B virus [4] and in the data set on Hepatitis B virus [6] were 6.25 µM, 9.92 µM and 6.3 µM, respectively. Moreover, the “Selectivity Index” value in data set [3] was determined as 10.6; in data set [5] it was 6.68; in data set [7] it was 10.51.

Take `Cc1ccc(S(=O)(=O)Oc2cc(-c3ccccn3)[nH]n2)cc1`: the CC50 at 72 h in data set [1] stood at 217 µM. Further, in data set [1], the Activity entry was “Dose-dependent effect”. Also, the results for the IC50 in the data set with Hepatitis B virus [2], in the data set with Hepatitis B virus [4] and in the data set with Hepatitis B virus [6] were 23.2 µM, 32.3 µM and 31.3 µM, respectively. Besides, the “Selectivity Index” value in data set [3] turned out to be 9.35; in data set [5], 6.71; in data set [7] it was 6.92.

Consider `CS(=O)(=O)Oc1cc(-c2ccccn2)[nH]n1`, for which, in data set [1], the CC50 at 72 h turned out to be 1060 µM and the Activity entry is reported as “Dose-dependent effect”. The IC50 in the data set with Hepatitis B virus [2] worked out at 287 µM. In data set [3], the “Selectivity Index” value is 3.68.

`O=[N+]([O-])c1ccccc1S(=O)(=O)Oc1cc(-c2ccccn2)[nH]n1`: the CC50 at 72 h in data set [1] was found to be 326 µM. Moreover, the Activity result in data set [1] is “Dose-dependent effect”. In addition, the IC50 in the data set on Hepatitis B virus [2] is 7.48 µM; in the data set with Hepatitis B virus [4] it was 12 µM; in the data set on Hepatitis B virus [6], 9.19 µM. In addition, the “Selectivity Index” value in data set [3] is reported as 43.54; in data set [5] it was 27.11; in data set [7], 35.46.

Turning to `COc1ccc(S(=O)(=O)Oc2cc(CSc3ccccn3)[nH]n2)cc1`, in data set [1], the CC50 at 72 h was 90.2 µM. In addition, the Activity result in data set [1] was “Dose-dependent effect”. For the same compound, the IC50 with Hepatitis B virus [2] worked out at 14.5 µM; with Hepatitis B virus [4] it was 44.6 µM; in the data set with Hepatitis B virus [6], 38.1 µM. In addition, the “Selectivity Index” value in data set [3] worked out at 6.21; in data set [5] it was 2.02; in data set [7], 2.37.

`O=S(=O)(Oc1cc(CSc2ccccn2)[nH]n1)c1ccccc1`: the CC50 at 72 h in data set [1] was 103 µM. Further, the Activity entry in data set [1] was “Dose-dependent effect”. In addition, the IC50 was found to be 152 µM in the data set on Hepatitis B virus [2], 20.3 µM in the data set on Hepatitis B virus [4] and 18.9 µM in the data set with Hepatitis B virus [6]. The figures for the “Selectivity Index” value in data set [3], in data set [5] and in data set [7] were 0.68, 5.09 and 5.46, respectively.

In the case of `O=S(=O)(Oc1cc(-c2ccccn2)[nH]n1)c1ccccc1`, in data set [1], the CC50 at 72 h stood at 135 µM. The Activity result in data set [1] is given as “Dose-dependent effect”. The IC50 with Hepatitis B virus [2] is 137 µM; in the data set with Hepatitis B virus [4], 69.5 µM; with Hepatitis B virus [6] it was 65.3 µM. The results for the “Selectivity Index” value in data set [3], in data set [5] and in data set [7] were 0.99, 1.94 and 2.07, respectively.

As to `O=c1cc(-c2ccccn2)[nH][nH]1`, the CC50 at 72 h in data set [1] is 1060 µM. Further, the Activity entry in data set [1] is “Dose-dependent effect”. The results for the IC50 in the data set on Hepatitis B virus [2], in the data set with Hepatitis B virus [4] and with Hepatitis B virus [6] were 1380 µM, 1370 µM and 1350 µM, respectively. Further, the “Selectivity Index” value was 0.77 in data set [3], 0.78 in data set [5] and 0.79 in data set [7].

As for `O=[N+]([O-])c1ccc(S(=O)(=O)Oc2cc(-c3ccccn3)[nH]n2)cc1`, in data set [1], the CC50 at 72 h turned out to be 787 µM and the Activity entry was “Dose-dependent effect”. Moreover, the IC50 with Hepatitis B virus [2] was 125 µM. For the same compound, the “Selectivity Index” value in data set [3] is recorded as 6.28.

With `CS(=O)(=O)Oc1cc(CSc2ccccn2)[nH]n1`, the CC50 at 72 h in data set [1] is 830 µM. Further, in data set [1], the Activity entry is “Dose-dependent effect”. The IC50 in the data set with Hepatitis B virus [2] amounted to 161 µM; with Hepatitis B virus [4], 679 µM; in the data set with Hepatitis B virus [6], 739 µM. Also, the “Selectivity Index” value was found to be 5.17 in data set [3], 1.22 in data set [5] and 1.12 in data set [7].

On to `O=S(=O)(Oc1cc(-c2ccccn2)[nH]n1)c1ccc(F)cc1`, for which the CC50 at 72 h in data set [1] is 254 µM. In data set [1], the Activity result is reported as “Dose-dependent effect”. Besides, the values for the concentration for half-maximal inhibition (IC50) in the data set on Hepatitis B virus [2], in the data set with Hepatitis B virus [4] and in the data set on Hepatitis B virus [6] were 45.9 µM, 82.9 µM and 92.1 µM, respectively. Besides, the “Selectivity Index” value in data set [3] is given as 5.53; in data set [5], 3.06; in data set [7] it was 2.76.

Turning to `O=S(=O)(Oc1cc(-c2ccccn2)[nH]n1)c1ccc(Br)cc1`, in data set [1], the CC50 at 72 h stood at 809 µM and the Activity result is listed as “Dose-dependent effect”. For the same compound, the IC50 in the data set on Hepatitis B virus [2] stood at 210 µM. Besides, the “Selectivity Index” value in data set [3] is given as 3.85.

Regarding `Cc1ccc(S(=O)(=O)Oc2cc(CSc3ccccn3)[nH]n2)cc1`, in data set [1], the CC50 at 72 h turned out to be 86.4 µM. The Activity result in data set [1] is “Dose-dependent effect”. The IC50 with Hepatitis B virus [2] amounted to 19.8 µM; in the data set on Hepatitis B virus [4], 19.4 µM; in the data set with Hepatitis B virus [6] it was 14.3 µM. In addition, the figures for the “Selectivity Index” value in data set [3], in data set [5] and in data set [7] were 4.36, 4.45 and 6.04, respectively.

For the compound `O=S(=O)(Oc1cc(CSc2ccccn2)[nH]n1)c1ccc(F)cc1`, in data set [1], the CC50 at 72 h was determined as 116 µM. For the same compound, in data set [1], the Activity entry is on record as “Dose-dependent effect”. Besides, the IC50 in the data set on Hepatitis B virus [2] amounted to 26.2 µM; in the data set on Hepatitis B virus [4] it was 250 µM; in the data set with Hepatitis B virus [6], 197 µM. Further, the “Selectivity Index” value is given as 4.44 in data set [3], 0.46 in data set [5] and 0.59 in data set [7].

In the case of `COc1ccc(S(=O)(=O)Oc2cc(-c3ccccn3)[nH]n2)cc1`, in data set [1], the CC50 at 72 h stood at 87.5 µM. Also, the Activity result in data set [1] is given as “Dose-dependent effect”. Besides, the IC50 in the data set with Hepatitis B virus [2] is 15.4 µM; in the data set with Hepatitis B virus [4], 23.1 µM; in the data set on Hepatitis B virus [6], 22.2 µM. Further, the “Selectivity Index” value in data set [3] was 5.69; in data set [5], 3.79; in data set [7] it was 3.95.
